{"source": "ChEMBL document CHEMBL1155171", "about": "“Synergistic activity of dispersin B and cefamandole nafate in inhibition of staphylococcal biofilm growth on polyurethanes” (Antimicrob Agents Chemother, 2007)", "key": {"[1]": {"tested_on": "Staphylococcus epidermidis", "assay": "Antibacterial activity against oxacillin-sensitive Staphylococcus epidermidis ATCC 12228 at 0.25 ug/ml after 18 hrs", "type": "functional, organism-based"}, "[2]": {"tested_on": "Staphylococcus epidermidis", "assay": "Antibacterial activity against oxacillin-sensitive Staphylococcus epidermidis ATCC 12228 assessed as reduction in number of viable biofilm associated bacteria in presence of dispersin B", "type": "functional, organism-based"}}, "note": "Active and inactive are the calls of the source. The rule behind the calls is not given here.", "data": [{"smiles": "Cn1nnnc1SCC1=C(C(=O)O)N2C(=O)[C@@H](NC(=O)[C@H](OC=O)c3ccccc3)[C@H]2SC1", "values": [{"measurement": "Activity", "setting": "[1]", "value": "Active"}, {"measurement": "Activity", "setting": "[2]", "value": "Active"}]}]}
